Assay results: patent US12421254B2, “KRAS modulators and uses thereof” (Quanta Therapeutics, Inc., priority 2023, dated 2025)

Experiments:
[1] = system: phospho-ERK in SW620 (KRAS-G12V) cells; assay: pERK In Cell Western (ICW) assay (Method B), SW620; type: cell-based; details: Homo sapiens, SW-620, 3 h, Table 4
Protocol: pERK ICW is a high throughput screening assay to evaluate the cellular potency of mutant KRAS small molecule inhibitors. KRAS mutant cell lines AGS, GP2D (KRAS-G12D) as well as SW620 (KRAS-G12V) were purchased from ATCC and maintained respectively in RPMI/DMEM/RPMI medium supplemented with 10% fetal bovine serum.
Cells grown in exponential phase were trypsinized, resuspended in fresh media, and viable cells were counted using a cell counter with Trypan Blue (BioRad TC20). Cells were seeded into 384-well plate (Greiner 781091) at density of 5,000 cells/well for AGS and 10,000 cells/well for GP2D/SW620 and allowed to grow overnight in a 37° C. CO2 incubator. The next day, compounds were dispensed into wells with a ½ log, 9-point serial dilution using a Tecan D300e dispenser and incubated for 3 hours in a 37° C. CO2 incubator. Cells were then fixed with paraformaldehyde (Electron Microscopy Sciences, 15710, 4% final concentration) for 30 min, permeabilized with wash buffer (1×PBS+0.1% Triton X-100) for 30 min and blocked with Odyssey blocking buffer (Li—COR 927-70001) for 1 hour, all at room temperature (RT). Phospho-ERK antibody (CST 4370L) was diluted 1:500 in Odyssey T20 (PBS) antibody diluent (Li—COR 927-75001) and incubated with cells overnight at 4° C. The next day, plates were washed 5× with wash buffer, incubated with IRDye 800 CW, Goat anti-Rabbit secondary antibody (Li—COR 926-32211, 1:800) and DRAQ5 (CST 4084L, 1:5,000) diluted in Odyssey T20 (PBS) antibody diluent for 1 hour, washed 5×, and imaged on an Odyssey CLx imaging system.
For data analysis, signal intensities from 800 (phosphor-ERK) and 700 (DRAQ5) channels were extracted, and phospho-ERK signals were normalized to DRAQ5 signals for each well and percent of blank control values were computed. Data were then imported into Graphpad Prism to compute half-maximal inhibitory concentrations (IC50) using a 4-parameter variable slope model. Z-factor for each plate was computed from signals derived from wells treated with either DMSO or 5 μM of control compound. AGS pERK ICW (Method B) IC50 (uM) values of selected compounds are depicted in Table 2 with compounds having a value ≥0.001 uM to 0.01 uM as ++++; ≥0.01 uM to 0.1 uM as +++; ≥0.1 uM to 1 uM as ++; ≥1 uM to 10 uM as + and ≥10 uM as NA.

[2] = target: GST-tagged KRAS-G12D (2-169) (Homo sapiens, UniProt P01116, G12D); assay: Nucleotide exchange assay (NEA), SOS-mediated, HTRF, KRAS G12D; type: biochemical; details: Table 4; IC50 extracted at 30 min; 20 nM SOScat; read-out: NEA G12D IC50
Chain of GST-tagged KRAS-G12D (2-169) (P01116 2-169 isoform P01116-2 G12D): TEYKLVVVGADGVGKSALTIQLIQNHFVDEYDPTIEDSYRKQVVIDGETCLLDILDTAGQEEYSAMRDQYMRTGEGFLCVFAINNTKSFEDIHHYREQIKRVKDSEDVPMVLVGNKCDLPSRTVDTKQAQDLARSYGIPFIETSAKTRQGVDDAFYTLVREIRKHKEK
Summary of the method: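 SOS1cat-driven loading of fluorescent GTP-DY-647P1 (150 nM) onto GST-KRAS-G12D (2-169, 0.25 nM) read by time-resolved FRET; SOScat 20 nM, compound preincubated with KRAS 1 h at RT. Signal blanked to no-SOS reactions, normalized to DMSO; IC50 fitted from the 30-min read.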

[3] = target: GST-tagged KRAS-G12V (2-169) (Homo sapiens, UniProt P01116, G12V); assay: Nucleotide exchange assay (NEA), SOS-mediated, HTRF, KRAS G12V; type: biochemical; details: Table 4; IC50 extracted at 90 min; 80 nM SOS
Chain of GST-tagged KRAS-G12V (2-169) (P01116 2-169 isoform P01116-2 G12V): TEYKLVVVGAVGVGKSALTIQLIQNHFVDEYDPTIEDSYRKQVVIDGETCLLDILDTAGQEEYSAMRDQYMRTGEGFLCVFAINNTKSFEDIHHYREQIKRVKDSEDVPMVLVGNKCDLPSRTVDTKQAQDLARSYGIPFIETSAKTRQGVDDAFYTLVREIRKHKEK
Summary of the method: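 Exchange onto fluorescent GTP-DY-647P1 (150 nM final) catalysed by 80 nM SOS1cat was followed by Tb-anti-GST HTRF at RT for up to 90 min, after 1 h compound pre-incubation with 0.25 nM GST-tagged KRAS-G12V (2-169), pH 7.3. DMSO = 0%, no-SOS blank = 100%; 4-parameter IC50 taken at 90 min.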

Row | SMILES | IC50 [1] [nM] | IC50 [2] [nM] | IC50 [3] [nM]
1 | C#CCN(CC#N)c1nc(OC[C@@]23CCCN2C[C@H](F)C3)nc(N2CC3(C2)SCc2sc(N)c(C#N)c23)n1 [Compound 243, 2-amino-1′-[4-[cyanomethyl(prop-2-ynyl)amino]-6-[[(2R,8S)-2-fluoro-1,2,3,5,6,7-hexahydropyrrolizin-8-yl]methoxy]-1,3,5-triazin-2-yl]spiro[6H-thieno[3,4-b]thiophene-4,3′-azetidine]-3-carbonitrile] | 100 to 1000 | < 10 | < 10
2 | CC(c1c[nH]nn1)N(CC#N)c1nc(OC[C@@]23CCCN2C[C@H](F)C3)nc(N2CC3(C2)SCc2sc(N)c(C#N)c23)n1 (stereo partly drawn) [Compound 250, 2-amino-1′-[4-[cyanomethyl-[1-(1H-triazol-4-yl)ethyl]amino]-6-[[(2R,8S)-2-fluoro-1,2,3,5,6,7-hexahydropyrrolizin-8-yl]methoxy]-1,3,5-triazin-2-yl]spiro[6H-thieno[3,4-b]thiophene-4,3′-azetidine]-3-carbonitrile] | 100 to 1000 | < 10 | < 10
3 | C#CCN(c1nc(OC[C@@]23CCCN2C[C@H](F)C3)nc(N2CC3(C2)SCc2sc(N)c(C#N)c23)n1)C1(C#N)CC1 [Compound 247, 2-amino-1′-[4-[(1-cyanocyclopropyl)-prop-2-ynyl-amino]-6-[[(2R,8S)-2-fluoro-1,2,3,5,6,7-hexahydropyrrolizin-8-yl]methoxy]-1,3,5-triazin-2-yl]spiro[6H-thieno[3,4-b]thiophene-4,3′-azetidine]-3-carbonitrile] | 100 to 1000 | < 10 | < 10
4 | N#Cc1c(N)sc2c1C1(CN(c3nc(OC[C@@]45CCCN4C[C@H](F)C5)nc(N4[C@H]5CC[C@]4(CO)COC5)n3)C1)SC2 [Compound 200, 2′-amino-1-(4-(((2R,7aS)-2-fluorotetrahydro-1H-pyrrolizin-7a(5H)-yl)methoxy)-6-((1S,5S)-1-(hydroxymethyl)-3-oxa-8-azabicyclo[3.2.1]octan-8-yl)-1,3,5-triazin-2-yl)-6′H-spiro[azetidine-3,4′-thieno[3,4-b]thiophene]-3′-carbonitrile] | 100 to 1000 | 10 to 100 | < 10
5 | C#CC(C)N(CC#N)c1nc(OC[C@@]23CCCN2C[C@H](F)C3)nc(N2CC3(C2)SCc2sc(N)c(C#N)c23)n1 (stereo partly drawn) [Compound 244, 2-amino-1′-[4-[cyanomethyl(1-methylprop-2-ynyl)amino]-6-[[(2R,8S)-2-fluoro-1,2,3,5,6,7-hexahydropyrrolizin-8-yl]methoxy]-1,3,5-triazin-2-yl]spiro[6H-thieno[3,4-b]thiophene-4,3′-azetidine]-3-carbonitrile] | 100 to 1000 | < 10 | < 10
6 | N#CCN(CC(F)F)c1nc(OC[C@@]23CCCN2C[C@H](F)C3)nc(N2CC3(C2)SCc2sc(N)c(C#N)c23)n1 [Compound 242, 2-amino-1′-[4-[cyanomethyl(2,2-difluoroethyl)amino]-6-[[(2R,8S)-2-fluoro-1,2,3,5,6,7-hexahydropyrrolizin-8-yl]methoxy]-1,3,5-triazin-2-yl]spiro[6H-thieno[3,4-b]thiophene-4,3′-azetidine]-3-carbonitrile] | 10 to 100 | < 10 | < 10
7 | CC(CC#N)N(C)c1nc(OC[C@@]23CCCN2C[C@H](F)C3)nc(N2CC3(C2)SCc2sc(N)c(C#N)c23)n1 (stereo partly drawn) [Compound 249, 2-amino-1′-[4-[(2-cyano-1-methyl-ethyl)-methyl-amino]-6-[[(2R,8S)-2-fluoro-1,2,3,5,6,7-hexahydropyrrolizin-8-yl]methoxy]-1,3,5-triazin-2-yl]spiro[6H-thieno[2,3-c]thiophene-4,3′-azetidine]-3-carbonitrile] | 1000 to 20000 | < 10 | < 10
8 | N#Cc1c(N)sc2c1C1(CN(c3nc(OC[C@@]45CCCN4C[C@H](F)C5)nc(N(CCO)C4(C#N)CC4)n3)C1)SC2 (racemic) [Compound 240, 2-amino-1′-[4-[(1-cyanocyclopropyl)-(2-hydroxyethyl)amino]-6-[[rac-(2R,8S)-2-fluoro-1,2,3,5,6,7-hexahydropyrrolizin-8-yl]methoxy]-1,3,5-triazin-2-yl]spiro[6H-thieno[3,4-b]thiophene-4,3′-azetidine]-3-carbonitrile] | 10 to 100 | < 10 | < 10
9 | CCN(c1nc(OC[C@@]23CCCN2C[C@H](F)C3)nc(N2CC3(C2)SCc2sc(N)c(C#N)c23)n1)C(C)CC#N (stereo partly drawn) [Compound 254, 2-amino-1′-[4-[(2-cyano-1-methyl-ethyl)-ethyl-amino]-6-[[(2R,8S)-2-fluoro-1,2,3,5,6,7-hexahydropyrrolizin-8-yl]methoxy]-1,3,5-triazin-2-yl]spiro[6H-thieno[3,4-b]thiophene-4,3′-azetidine]-3-carbonitrile; formic acid] | 100 to 1000 | < 10 | < 10
10 | CCN(c1nc(OC[C@@]23CCCN2C[C@H](F)C3)nc(N2CC3(C2)SCc2sc(N)c(C#N)c23)n1)[C@H](C)C(N)=O [Compound 235, (2R)-2-[[4-(2-amino-3-cyano-spiro[6H-thieno[3,4-b]thiophene-4,3′-azetidine]-1′-yl)-6-[[(2R,8S)-2-fluoro-1,2,3,5,6,7-hexahydropyrrolizin-8-yl]methoxy]-1,3,5-triazin-2-yl]-ethyl-amino]propanamide] | 100 to 1000 | < 10 | < 10
11 | N#Cc1c(N)sc2c1C1(CN(c3nc(OC[C@@]45CCCN4C[C@H](F)C5)nc(N(CC(=O)O)C4(C#N)CC4)n3)C1)SC2 [Compound 259, 2-[[4-(2-amino-3-cyano-spiro[6H-thieno[3,4-b]thiophene-4,3′-azetidine]-1′-yl)-6-[[(2R,8S)-2-fluoro-1,2,3,5,6,7-hexahydropyrrolizin-8-yl]methoxy]-1,3,5-triazin-2-yl]-(1-cyanocyclopropyl)amino]acetic acid] | 1000 to 20000 |  | 
12 | CCN(c1nc(OC[C@@]23CCCN2C[C@H](F)C3)nc(N2CC3(C2)SCc2sc(N)c(C#N)c23)n1)[C@H](C)C#N [Compound 236, 2-amino-1′-[4-[[(1R)-1-cyanoethyl]-ethyl-amino]-6-[[(2R,8S)-2-fluoro-1,2,3,5,6,7-hexahydropyrrolizin-8-yl]methoxy]-1,3,5-triazin-2-yl]spiro[6H-thieno[3,4-b]thiophene-4,3′-azetidine]-3-carbonitrile; formic acid] | 10 to 100 | < 10 | < 10
13 | CCN(CC1(C#N)CC1)c1nc(OC[C@@]23CCCN2C[C@H](F)C3)nc(N2CC3(C2)SCc2sc(N)c(C#N)c23)n1 [Compound 241, 2-amino-1′-[4-[(1-cyanocyclopropyl)methyl-ethyl-amino]-6-[[(2R,8S)-2-fluoro-1,2,3,5,6,7-hexahydropyrrolizin-8-yl]methoxy]-1,3,5-triazin-2-yl]spiro[6H-thieno[2,3-c]thiophene-4,3′-azetidine]-3-carbonitrile] | 100 to 1000 | < 10 | < 10
14 | CCN(c1nc(OC[C@@]23CCCN2C[C@H](F)C3)nc(N2CC3(C2)SCc2sc(N)c(C#N)c23)n1)C1(C#N)CC1 [Compound 238, 2-amino-1′-[4-[(1-cyanocyclopropyl)-ethyl-amino]-6-[[(2R,8S)-2-fluoro-1,2,3,5,6,7-hexahydropyrrolizin-8-yl]methoxy]-1,3,5-triazin-2-yl]spiro[6H-thieno[3,4-b]thiophene-4,3′-azetidine]-3-carbonitrile] | 10 to 100 | < 10 | < 10
